Source: patent US11634447B2 (priority 2012, dated 2023)

The molecules below were run on bacterial strain LF82 binding to the glycoprotein BSA-(Mannose)3 (assay: Bacterial Binding Assay (BBA)). Conditions: read-out: Bacterial Binding Assay IC50, LF82/Luciferase strain binding to BSA-(Man)3 coated plates, luminescence.
Type: cell-based, Escherichia coli
Procedure, shortened: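 Inhibition of LF82/luciferase E. coli adhesion is read as luminescence after washing off unbound cells. Compound and bacteria (10^7 per well) are co-incubated 40-75 min at room temperature on wells coated with 0.5-2 μg/mL BSA-(Man)3, with BSA-only wells as background; IC50 values derived.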
`OC[C@H]1O[C@H](c2cccc(-c3ccc(-c4cccc([C@H]5O[C@H](CO)[C@@H](O)[C@H](O)[C@@H]5O)c4)cc3)c2)[C@@H](O)[C@@H](O)[C@@H]1O` [Compound 139, (2R,3S,4R,5S,6R)-2-(hydroxymethyl)-6-[3-[4-[3-[(2R,3S,4R,5S,6R)-3,4,5-trihydroxy-6-(hydroxymethyl)tetrahydropyran-2-yl]phenyl]phenyl]phenyl]tetrahydropyran-3,4,5-triol] was tested, and the IC50 was 46 nM.
For `CN(C)CC(O)Cn1c2ccc(C#C[C@H]3O[C@H](CO)[C@@H](O)[C@H](O)[C@@H]3O)cc2c2cc(C#C[C@H]3O[C@H](CO)[C@@H](O)[C@H](O)[C@@H]3O)ccc21` (stereo partly drawn) [Compound 173, (2R,3S,4R,5S,6R)-2-[2-[9-[3-(dimethylamino)-2-hydroxy-propyl]-6-[2-[(2R,3S,4R,5S,6R)-3,4,5-trihydroxy-6-(hydroxymethyl)tetrahydropyran-2-yl]ethynyl]carbazol-3-yl]ethynyl]-6-(hydroxymethyl)tetrahydropyran-3,4,5-triol], the IC50 was 9.3 nM.
Work on `Cc1cccc(C(=O)c2c(C#C[C@H]3O[C@H](CO)[C@@H](O)[C@H](O)[C@@H]3O)ccc3c2C2(CCNCC2)c2cc(C#C[C@H]4O[C@H](CO)[C@@H](O)[C@H](O)[C@@H]4O)ccc2-3)n1` [Compound 239, [2,7-bis[2-[(2R,3S,4R,5S,6R)-3,4,5-trihydroxy-6-(hydroxymethyl)tetrahydropyran-2-yl]ethynyl]spiro[fluorene-9,4piperidine]-1yl]-(6-methyl-2-pyridyl)methanone] yielded an IC50 of 0.35 nM.
For `COc1cc([C@H]2O[C@H](CO)[C@@H](O)[C@H](O)[C@@H]2O)ccc1-c1ccc([C@H]2O[C@H](CO)[C@@H](O)[C@H](O)[C@@H]2O)c(C)c1` [Compound 147], the IC50 was 134 nM.
Molecule `COc1cc(C#C[C@H]2O[C@H](CO)[C@@H](O)[C@H](O)[C@@H]2O)c(OC)cc1C#C[C@H]1O[C@H](CO)[C@@H](O)[C@H](O)[C@@H]1O` [Compound 96, (2R,3S,4R,5S,6R)-2-[2-[2,5-dimethoxy-4-[2-[(2R,3S,4R,5S,6R)-3,4,5-trihydroxy-6-(hydroxymethyl)tetrahydropyran-2-yl]ethynyl]phenyl]ethynyl]-6-(hydroxymethyl)tetrahydropyran-3,4,5-triol] has an IC50 of 66 nM.
`Cc1cc([C@H]2O[C@H](CO)[C@@H](O)[C@H](O)[C@@H]2O)ccc1-c1ccc([C@H]2O[C@H](CO)[C@@H](O)[C@H](O)[C@@H]2O)c(C)c1` [Compound 149] showed an IC50 of 27 nM.
In the case of `OC[C@H]1O[C@H](c2ccc(-c3ccc([C@H]4O[C@H](CO)[C@@H](O)[C@H](O)[C@@H]4O)cc3F)cc2)[C@@H](O)[C@@H](O)[C@@H]1O` [Compound 62], the IC50 is reported as 67 nM.
For `OC[C@H]1O[C@H](c2ccc(C#C[C@H]3O[C@H](CO)[C@@H](O)[C@H](O)[C@@H]3O)c(F)c2)[C@@H](O)[C@@H](O)[C@@H]1O` [Compound 144], the IC50 was 235 nM.
With `COc1cc([C@H]2O[C@H](CO)[C@@H](O)[C@H](O)[C@@H]2O)ccc1-c1ccc([C@H]2O[C@H](CO)[C@@H](O)[C@H](O)[C@@H]2O)cc1` [Compound 67] the IC50 was 40 nM.
`[2H]C([2H])([2H])OCCn1c2cc(C#C[C@H]3O[C@H](CO)[C@@H](O)[C@H](O)[C@@H]3O)ccc2c2ccc(C#C[C@H]3O[C@H](CO)[C@@H](O)[C@H](O)[C@@H]3O)cc21` [Compound 183, (2R,3S,4R,5S,6R)-2-(Hydroxymethyl)-6-[2-[9-[2-(trideuteriomethoxy)ethyl]-7-[2-[(2R,3S,4R,5S,6R)-3,4,5-trihydroxy-6-(hydroxymethyl)tetrahydropyran-2-yl]ethynyl]carbazol-2-yl]ethynyl]tetrahydropyran-3,4,5-triol] showed an IC50 of 0.76 nM.
`CCCCc1cc(C#C[C@H]2O[C@H](CO)[C@@H](O)[C@H](O)[C@@H]2O)ccc1C#C[C@H]1O[C@H](CO)[C@@H](O)[C@H](O)[C@@H]1O` [Compound 72] showed an IC50 of 18 nM.
`Cc1cc(-c2cnc(-c3ccc([C@H]4O[C@H](CO)[C@@H](O)[C@H](O)[C@@H]4O)c(C)c3)cn2)ccc1[C@H]1O[C@H](CO)[C@@H](O)[C@H](O)[C@@H]1O` [Compound 153, (2R,3S,4R,5S,6R)-2-(hydroxymethyl)-6-[2-methyl-4-[5-[3-methyl-4-[(2R,3S,4R,5S,6R)-3,4,5-trihydroxy-6-(hydroxymethyl)tetrahydropyran-2-yl]phenyl]pyrazin-2-yl]phenyl]tetrahydropyran-3,4,5-triol] showed an IC50 of 92 nM.
For `Cc1cc(/C=C/c2ccc([C@H]3O[C@H](CO)[C@@H](O)[C@H](O)[C@@H]3O)c(C)c2)ccc1[C@H]1O[C@H](CO)[C@@H](O)[C@H](O)[C@@H]1O` [Compound 159, (2R,3S,4R,5S,6R)-2-(hydroxymethyl)-6-[2-methyl-4-[(E)-2-[3-methyl-4-[(2R,3S,4R,5S,6R)-3,4,5-trihydroxy-6-(hydroxymethyl)tetrahydropyran-2-yl]phenyl]vinyl]phenyl]tetrahydropyran-3,4,5-triol], the IC50 was 46 nM.
In the case of `CC(C)C1(O)c2cc(C#C[C@H]3O[C@H](CO)[C@@H](O)[C@H](O)[C@@H]3O)ccc2-c2ccc(C#C[C@H]3O[C@H](CO)[C@@H](O)[C@H](O)[C@@H]3O)cc21` [Compound 165, (2R,3S,4R,5S,6R)-2-[2-[9-hydroxy-9-isopropyl-7[2-[(2R,3S,4R,5S,6R)-3,4,5-trihydroxy-6-(hydroxymethyl)tetrahydropyran-2-yl]ethynyl]fluoren-2-yl]ethynyl]-6-(hydroxymethyl)tetrahydropyran-3,4,5-triol], the IC50 is reported as 2.4 nM.
In the case of `CCc1cc(C#C[C@H]2O[C@H](CO)[C@@H](O)[C@H](O)[C@@H]2O)cc(CC)c1C#C[C@H]1O[C@H](CO)[C@@H](O)[C@H](O)[C@@H]1O` [Compound 73], the IC50 is reported as 21 nM.
Molecule `OC[C@H]1O[C@H](C#Cc2ccc(C#C[C@H]3O[C@H](CO)[C@@H](O)[C@H](O)C3O)cc2)[C@@H](O)[C@@H](O)[C@@H]1O` (stereo in doubt) [Compound 69, (2R,3 S,4R,5R,6R)-2-(hydroxymethyl)-6-[2-[4-[2-[(2R,3 S,4R,5 S,6R)-3,4,5-trihydroxy-6-(hydroxymethyl)tetrahydropyran-2-yl]ethynyl]phenyl]ethynyl]tetrahydropyran-3,4,5-triol] has an IC50 of 66 nM.
`COCc1cc(C#C[C@H]2O[C@H](CO)[C@@H](O)[C@H](O)[C@@H]2O)ccc1C#C[C@H]1O[C@H](CO)[C@@H](O)[C@H](O)[C@@H]1O` [Compound 79, (2R,3S,4R,5S,6R)-2-(hydroxymethyl)-6-[2-[3-(methoxymethyl)-4-[2-[(2R,3S,4R,5S,6R)-3,4,5-trihydroxy-6-(hydroxymethyl)tetrahydropyran-2-yl]ethynyl]phenyl]ethynyl]tetrahydropyran-3,4,5-triol] was tested, and the IC50 was 37 nM.
`OC[C@H]1O[C@H](C#Cc2ccc3c(c2)C(CO)(CO)c2cc(C#C[C@H]4O[C@H](CO)[C@@H](O)[C@H](O)[C@@H]4O)ccc2-3)[C@@H](O)[C@@H](O)[C@@H]1O` [Compound 217, (2R,3S,4R,5S,6R)-2-[2-[9,9-Bis(hydroxymethyl)-7-[2-[(2R,3S,4R,5S,6R)-3,4,5-trihydroxy-6-(hydroxymethyl)tetrahydropyran-2-yl]ethynyl]fluoren-2-yl]ethynyl]-6-(hydroxymethyl)tetrahydropyran-3,4,5-triol] showed an IC50 of 20 nM.
